According to patent US8211646B1, “Methods of treating ovarian cancer by modulating SnoN” (University of South Florida, priority 2008, dated 2012):
Peptide text beside a SMILES is read from it. * marks the point of attachment. Cbz = O=C(OCc1ccccc1)*

Experiments:
Assay type in all cases: cell-based
SnoN = test: Western analysis of SnoN protein levels; design: SnoN basal protein levels: dose or concentration left out as unconfirmed
Protocol: (§1) Proteins were resolved on an 8%, 12%, or 15% SDS-PAGE gel (as appropriate) and electrophoretically transferred to polyvinyldifluoride (PVDF) membranes. After blocking with 5% (w/v) milk in TBST (Tris-Buffered Saline containing 0.1% Tween-20) for one hour at room temperature, membranes were incubated with primary antibodies (at appropriate dilution) overnight at 4° C., followed by extensive washing and incubation for 1 hour with the appropriate horseradish peroxidase-conjugated secondary antibodies (BioRad, Hercules, Calif.). Blots were washed extensively. A rabbit polyclonal EVI1 antibody was obtained (1:3000 dilution, St. Jude's Children's Hospital, Memphis, Tenn.). SnoN rabbit polyclonal (1:1000 dilution), PML, and p21 SMURF2 rabbit polyclonal (1:500 dilution), MRP1 mouse monoclonal (1:500 dilution) and GAPDH mouse monoclonal (1:250 dilution) antibodies were obtained from Santa Cruz Biotechnology (Santa Cruz, Calif.). TGFβRII rabbit polyclonal (1:1000 dilution) antibody was obtained from Strategic Diagnostics (Newark, Del.). Smad2/3 rabbit polyclonal (1:1000 dilution), Beclin-1 rabbit polyclonal (1:1000 dilution), AKT rabbit polyclonal (1:1000 dilution), TAK1 rabbit polyclonal (1:1000 dilution), PARP rabbit polyclonal (1:1000 dilution), Beclin-1 rabbit polyclonal (1:1000 dilution), caspase-3 rabbit polyclonal (1:1000) which detects the pro-caspase form, and ATG5 rabbit polyclonal (1:1000 dilution), LC3-II rabbit polyclonal (1:1000 dilution) antibodies were obtained from Cell Signaling Technology (Danvers, Mass.). The HSP27 mouse monoclonal (1:1000 dilution) antibody was obtained from Stressgen (Ann Arbor, Mich.). Blots were developed using chemiluminescence substrates (Amersham Piscataway, N.J. or BioRad, Hercules, Calif.). Monoclonal PAI-1 antibody was obtained from BD Pharmingen. PSMAD2, total SMAD2/3, p-ERK, p-AKT, and total AKT antibodies were obtained from Cell Signaling Technology. A monoclonal antibody against Arkadia was obtained from Abnova (Taiwan).
(§2) Densitometric analysis was performed using the HP Scanjet 5590 and the Image J program (Image Processing and Analysis in Java, NIH Image Software). Bands were selected and the intensity values were normalized to those for GAPDH. The values are presented as fold-changes relative to control siRNA treated cells.
The clinical inhibitors As2O3, geldanamycin (17-AAG) (dissolved in dimethylsulfoxide [DMSO]), and MG132 (dissolved in DMSO) were obtained from Sigma-Aldrich (St. Louis, Mo.), Fisher Scientific (Pittsburgh, Pa.), and Alexis Biochemicals (Farmingdale, N.Y.), respectively. N-acetyl-L-cysteine (NAC; dissolved in media) and Bortezomib (PS-341; dissolved in DMSO) were obtained from Fisher Scientific. 3-Methyladenine (3-MA; dissolved in media) was obtained from MP Biomedicals (Solon, Ohio). Tiron (4,5-Dihydroxy-1,3-benzenedisulfonic acid, dissolved in media) was obtained from Fisher Scientific. zVAD-fmk (dissolved in DMSO) and bafilomycin A (dissolved in DMSO) was obtained from Axxora LLC (San Diego, Calif.). Bovine catalase was obtained from Sigma-Aldrich. HBED and Mn TBAP was obtained from ENZO Life Sciences (Farmingdale, N.Y.). Ovarian cells were plated in 6-well plates at 250,000 cells per well and grown in complete medium. […] For control cells, DMSO (a final concentration of <0.5%) was added to compare appropriately to drugs dissolved in DMSO. After the appropriate incubation time (6 or 18 hours), cell lysates were collected, protein quantified, and SDS-PAGE/western analysis was performed. In addition, for selected studies, RNA was isolated, quantified, and used for qPCR analysis.

EVI1 and TGFβRII RNA = test: qPCR of EVI1 and TGFβRII RNA levels; details: 5 μM MG132, 18 hours
Protocol: RNA was isolated using the RNeasy Mini Kit (Qiagen, Valencia, Calif.) from normal, benign, stage I-IV ovarian patient samples and quantitative PCR was performed. A one-step RT-PCR Taqman master mix from Applied Biosystems (Foster City, Calif.) and primers for genes in the 3q26.2 amplicon were obtained using Genebank sequences as well as from Assays on Demand (Hs00180524_m1 (SnoN/SkiL)), with the following primers and probe sets.
EVI1 Exon III—(detects both EVI1 and MDS1/EVI1):
Primers/probe sequences for SnoN (Hs00180524_m1), TGFβRII (Hs00234253_m1), and LC3 (Hs00261291_m1) were obtained from Applied Biosystems (Assays by Design).
mRNA levels were determined using the One-Step-Plus Applied Biosystems Detection System or ABI PRISM 7700 Sequence Detection System using β-actin as a reference. […] 95° C. for 15 s followed by 60° C. for 1 min Using the correlative method, RNA-fold change in expression was calculated as Ct of gene—Ct of β-actin to generate ΔCt from which ΔCt of the normal sample was subtracted. […]
The clinical inhibitors As2O3, geldanamycin (17-AAG) (dissolved in dimethylsulfoxide [DMSO]), and MG132 (dissolved in DMSO) were obtained from Sigma-Aldrich (St. Louis, Mo.), Fisher Scientific (Pittsburgh, Pa.), and Alexis Biochemicals (Farmingdale, N.Y.), respectively. […] In addition, for selected studies, RNA was isolated, quantified, and used for qPCR analysis.

[1] = test system: TAK1, SMAD2/3, TGFβRII, AKT, phospho-SMAD2; test: Western analysis of other TGFβ signaling mediators
Protocol: as §1, §2
(§3) The clinical inhibitors As2O3, geldanamycin (17-AAG) (dissolved in dimethylsulfoxide [DMSO]), and MG132 (dissolved in DMSO) were obtained from Sigma-Aldrich (St. Louis, Mo.), Fisher Scientific (Pittsburgh, Pa.), and Alexis Biochemicals (Farmingdale, N.Y.), respectively. N-acetyl-L-cysteine (NAC; dissolved in media) and Bortezomib (PS-341; dissolved in DMSO) were obtained from Fisher Scientific. 3-Methyladenine (3-MA; dissolved in media) was obtained from MP Biomedicals (Solon, Ohio). Tiron (4,5-Dihydroxy-1,3-benzenedisulfonic acid, dissolved in media) was obtained from Fisher Scientific. zVAD-fmk (dissolved in DMSO) and bafilomycin A (dissolved in DMSO) was obtained from Axxora LLC (San Diego, Calif.). Bovine catalase was obtained from Sigma-Aldrich. HBED and Mn TBAP was obtained from ENZO Life Sciences (Farmingdale, N.Y.). Ovarian cells were plated in 6-well plates at 250,000 cells per well and grown in complete medium. The following day, the cells were treated with 5 μM MG132, As2O3 (between 2-50 μM), 17-AAG (between 2-50 μM), NAC (Fisher Scientific, between 25 μM to 1 mM), Tiron (between 25 μM to 1 mM), 3-MA (0.1 mM to 10 mM), or zVAD-fmk (25 μM to 100 μM). For control cells, DMSO (a final concentration of <0.5%) was added to compare appropriately to drugs dissolved in DMSO. After the appropriate incubation time (6 or 18 hours), cell lysates were collected, protein quantified, and SDS-PAGE/western analysis was performed. In addition, for selected studies, RNA was isolated, quantified, and used for qPCR analysis.

[2] = test system: EVI1 forms (MDS1/EVI1, EVI1, EVI1^Del190-515); details: combination with As2O3; HEY, OVCA429
Protocol: as §1, §2, §3

## CC(C)C[C@@H](C=O)NC(=O)[C@H](CC(C)C)NC(=O)[C@H](CC(C)C)NC(=O)OCc1ccccc1 [MG132] (Cbz-Leu-Leu-Leu-aldehyde)
SnoN; MG132, HEY and OVCA429, threshold between 3 and 6 h
  SnoN basal protein levels: marked increase
SnoN; combination with As2O3
  SnoN protein in drug-treated cells with added proteosome inhibitor: further increased
EVI1 and TGFβRII RNA
  EVI1 and TGFβRII RNA levels: markedly reduce
[1]; MG132 at 18 hours
  AKT, SMAD2/3, and TGFβRII protein levels: significantly decreased
[1]; combination with As2O3 (MG132: 6 hour drug treatment)
  TGFβRII protein in drug-treated cells with added proteosome inhibitor: recovered
[2]
  EVI1 protein in As2O3-treated cells with added proteosome inhibitor: recovered
